The values that follow come from ChEMBL document CHEMBL1123893, “Synthesis and physicochemical properties of thiadiazolo[3,2-a]pyrimidinesulfonamides and thiadiazolo[3,2-a]triazinesulfonamides as candidates for topically effective carbonic anhydrase inhibitors” (J Med Chem, 1987).

≈ marks a conversion by molar mass, not a printed value.

Series [1] is filed under the species Oryctolagus cuniculus. The series can be described thus: Evaluated for effect on intraocular pressure(IOP) in rabbit after 1 hour. The series is classed as functional, Eye.
Series [2] is filed under the species Oryctolagus cuniculus. As to conditions: rabbit, in vivo.
Description: Evaluated for first order rate constant (Kin) for transcorneal penetration in anesthetized rabbits
A short description of series [3]: physchem. The note with it: buffer.
Description: Evaluated for sulfonamide pKa, free acid water solubility
A short description of series [4]: physchem.
Description: Compound was evaluated for its solubility in water
For series [5], the species on record is Oryctolagus cuniculus.
The conditions of series [6]: octanol/water, pH 7.4.
Description: Evaluated for lipid solubility measured as partition coefficient at a pH 7.4 (CHCl3/buffer)

Description for Carbonic anhydrase: Evaluated for its activity against carbonic anhydrase (CA) in anesthetized rabbits

As to `Cn1nc(S(N)(=O)=O)s/c1=N\C(=O)C(F)(F)F`, the Effect in the series filed under Oryctolagus cuniculus [1] is recorded as -3.1 mmHg. Also, the Kin in the series filed under Oryctolagus cuniculus [2] came out at 0.014 h⁻¹. The same compound had a pKa in the series “physchem [3]” of 6.6. Besides, in the series “physchem [4]” (water), the solubility was determined as 8 mM (≈ 2320 µg/mL).

For the compound `CCn1c(=O)nc2sc(S(N)(=O)=O)nn2c1=O`, the I50 at Carbonic anhydrase is 20 nM. The compound further registered an Effect in the series listed under Oryctolagus cuniculus [5] of 0 mmHg.

In the case of `NS(=O)(=O)c1nn2c(O)cc(=O)nc2s1`, the I50 at Carbonic anhydrase was 37 nM.

Take `NS(=O)(=O)c1nn2c(=O)n(CCCl)c(=O)nc2s1`: at Carbonic anhydrase, the I50 was found to be 18 nM. This compound yielded an Effect in the series listed under Oryctolagus cuniculus [5] of 0 mmHg.

On to `COc1cc(=O)nc2sc(S(N)(=O)=O)nn12`, for which, at Carbonic anhydrase, the I50 is 50 nM. In the series listed under Oryctolagus cuniculus [5], the Effect was 0 mmHg.

For `NS(=O)(=O)C1=NN2C(=NC(=O)NS2(=O)=O)S1`, the I50 at Carbonic anhydrase is 50 nM. In addition, the Effect in the series filed under Oryctolagus cuniculus [5] was determined as 0 mmHg.

On to `NS(=O)(=O)c1nn2c(=O)[nH]c(=O)nc2s1`, for which the I50 at Carbonic anhydrase was found to be 20 nM. This compound also had an Effect in the series filed under Oryctolagus cuniculus [5] of 0 mmHg. This compound returned a pKa in the series “physchem [3]” of 8.3. The compound also came in with a solubility in the series “physchem [4]” (water) of 4 mM (≈ 997 µg/mL).

Consider `NS(=O)(=O)C1=NN2CCS(=O)(=O)N=C2S1`, for which the I50 at Carbonic anhydrase was 14 nM. The Effect in the series filed under Oryctolagus cuniculus [5] is listed as 0 mmHg.

In turn, `Cn1c(=O)nc2sc(S(N)(=O)=O)nn2c1=O` returned an I50 at Carbonic anhydrase of 20 nM. In addition, the Effect in the series listed under Oryctolagus cuniculus [5] was -1 mmHg.

`CC(=O)/N=c1/sc(S(N)(=O)=O)nn1C` [METHAZOLAMIDE] had a Kin in the series listed under Oryctolagus cuniculus [2] of 0.006 h⁻¹. Besides, the “log D” value in series [6] came to 0.06. In the series filed under Oryctolagus cuniculus [5], the Effect is -0.6 mmHg. Moreover, in “physchem [4]” (buffer), the concentration in solution (solubility) came to 5 mM (≈ 1180 µg/mL).

The term pKa denotes the negative logarithm of the acid dissociation constant. The low end stands for a stronger acid or weaker base, the high end for a weaker acid or stronger base. As a reminder, the solubility is how much of the substance goes into solution per volume. A higher solubility goes with much dissolved substance. The term log D denotes lipophilicity at a set pH, counting ionised and neutral species.
